Laboratory results: the supplement of paper PMC10307832

What was measured:
Test in all cases: relative viability (nuclei count vs DMSO), 5 days (fraction); higher = more cells survive
SK-LU-1 = tested on: SK-LU-1
How it was run: (§1)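 Each reported value is a median over duplicate plates. It expresses relative viability: treated-well nuclei count divided by vehicle-well nuclei count. Lung cancer cell lines in 1536-well plates were dosed by pin tool a day after seeding, alone with one drug or with a fixed anchor-drug dose plus five library-drug doses (not always all listed) in √10 steps, and nuclei were counted after 5 days.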

HCC-78 = tested on: HCC-78
How it was run: as §1

SW 1573 = tested on: SW 1573
How it was run: as §1

NCI-H1975 = tested on: NCI-H1975
How it was run: as §1

LCLC-103H = tested on: LCLC-103H
How it was run: as §1

NCI-H23 = tested on: NCI-H23
How it was run: as §1

NCI-H3122 = tested on: NCI-H3122
How it was run: as §1

LU99A = tested on: LU99A
How it was run: as §1

RERF-LC-KJ = tested on: RERF-LC-KJ
How it was run: as §1

LK-2 = tested on: LK-2
How it was run: as §1

NCI-H2085 = tested on: NCI-H2085
How it was run: as §1

ChaGo-K-1 = tested on: ChaGo-K-1
How it was run: as §1

HCC-366 = tested on: HCC-366
How it was run: as §1

SW 900 = tested on: SW 900
How it was run: as §1

NCI-H2405 = tested on: NCI-H2405
How it was run: as §1

NCI-H1666 = tested on: NCI-H1666
How it was run: as §1

HCC-44 = tested on: HCC-44
How it was run: as §1

EMC-BAC-2 = tested on: EMC-BAC-2
How it was run: as §1

NCI-H1563 = tested on: NCI-H1563
How it was run: as §1

EPLC-272H = tested on: EPLC-272H
How it was run: as §1

LXF-289 = tested on: LXF-289
How it was run: as §1

NCI-H2126 = tested on: NCI-H2126
How it was run: as §1

HCC-827 = tested on: HCC-827
How it was run: as §1

LOU-NH91 = tested on: LOU-NH91
How it was run: as §1

C[C@@H]1CN(CC(=O)Nc2ccc3c(c2)Cc2cccc(-c4cc(=O)cc(N5CCOCC5)o4)c2S3)C[C@H](C)O1 + N=C(N)NC(=N)NCCc1ccccc1 [Phenformin] (partner 250 µM)
relative viability (SK-LU-1; first compound 0.04 µM): 0.621
relative viability (SK-LU-1; first compound 0.1265 µM): 0.531
relative viability (SK-LU-1; first compound 0.4 µM): 0.516
relative viability (SK-LU-1; first compound 4 µM): 0.373
relative viability (HCC-78; first compound 0.04 µM): 0.656
relative viability (HCC-78; first compound 0.1265 µM): 0.661
relative viability (HCC-78; first compound 0.4 µM): 0.658
relative viability (HCC-78; first compound 4 µM): 0.619
relative viability (SW 1573; first compound 0.04 µM): 0.438
relative viability (SW 1573; first compound 0.1265 µM): 0.315
relative viability (SW 1573; first compound 0.4 µM): 0.301
relative viability (SW 1573; first compound 4 µM): 0.312
relative viability (NCI-H1975; first compound 0.04 µM): 0.437
relative viability (NCI-H1975; first compound 0.1265 µM): 0.39
relative viability (NCI-H1975; first compound 0.4 µM): 0.393
relative viability (NCI-H1975; first compound 4 µM): 0.332
relative viability (LCLC-103H; first compound 0.04 µM): 0.325
relative viability (LCLC-103H; first compound 0.1265 µM): 0.299
relative viability (LCLC-103H; first compound 0.4 µM): 0.302
relative viability (LCLC-103H; first compound 4 µM): 0.331
relative viability (NCI-H23; first compound 0.04 µM): 0.719
relative viability (NCI-H23; first compound 0.1265 µM): 0.762
relative viability (NCI-H23; first compound 0.4 µM): 0.803
relative viability (NCI-H23; first compound 4 µM): 0.733
relative viability (NCI-H3122; first compound 0.04 µM): 0.409
relative viability (NCI-H3122; first compound 0.1265 µM): 0.387
relative viability (NCI-H3122; first compound 0.4 µM): 0.365
relative viability (NCI-H3122; first compound 4 µM): 0.301
relative viability (LU99A; first compound 0.04 µM): 0.742
relative viability (LU99A; first compound 0.1265 µM): 0.985
relative viability (LU99A; first compound 0.4 µM): 1.02
relative viability (LU99A; first compound 4 µM): 0.916
relative viability (RERF-LC-KJ; first compound 0.04 µM): 0.422
relative viability (RERF-LC-KJ; first compound 0.1265 µM): 0.368
relative viability (RERF-LC-KJ; first compound 0.4 µM): 0.379
relative viability (RERF-LC-KJ; first compound 4 µM): 0.323
relative viability (LK-2; first compound 0.1265 µM): 0.464
relative viability (LK-2; first compound 0.4 µM): 0.365
relative viability (LK-2; first compound 4 µM): 0.634
relative viability (NCI-H2085; first compound 0.04 µM): 0.763
relative viability (NCI-H2085; first compound 0.1265 µM): 0.732
relative viability (NCI-H2085; first compound 0.4 µM): 0.694
relative viability (NCI-H2085; first compound 4 µM): 0.595
relative viability (ChaGo-K-1; first compound 0.04 µM): 0.48
relative viability (ChaGo-K-1; first compound 0.1265 µM): 0.45
relative viability (ChaGo-K-1; first compound 0.4 µM): 0.474
relative viability (ChaGo-K-1; first compound 4 µM): 0.411
relative viability (HCC-366; first compound 0.04 µM): 0.659
relative viability (HCC-366; first compound 0.1265 µM): 0.656
relative viability (HCC-366; first compound 0.4 µM): 0.634
relative viability (HCC-366; first compound 4 µM): 0.681
relative viability (SW 900; first compound 0.04 µM): 0.466
relative viability (SW 900; first compound 0.1265 µM): 0.724
relative viability (SW 900; first compound 0.4 µM): 0.669
relative viability (SW 900; first compound 4 µM): 0.488
relative viability (NCI-H2405; first compound 0.04 µM): 0.402
relative viability (NCI-H2405; first compound 0.1265 µM): 0.411
relative viability (NCI-H2405; first compound 0.4 µM): 0.379
relative viability (NCI-H2405; first compound 4 µM): 0.487
relative viability (NCI-H1666; first compound 0.04 µM): 0.57
relative viability (NCI-H1666; first compound 0.1265 µM): 0.553
relative viability (NCI-H1666; first compound 0.4 µM): 0.58
relative viability (NCI-H1666; first compound 4 µM): 0.554
relative viability (HCC-44; first compound 0.04 µM): 0.176
relative viability (HCC-44; first compound 0.1265 µM): 0.233
relative viability (HCC-44; first compound 0.4 µM): 0.161
relative viability (HCC-44; first compound 4 µM): 0.114
relative viability (EMC-BAC-2; first compound 0.04 µM): 0.56
relative viability (EMC-BAC-2; first compound 0.1265 µM): 0.566
relative viability (EMC-BAC-2; first compound 0.4 µM): 0.495
relative viability (EMC-BAC-2; first compound 4 µM): 0.513
relative viability (NCI-H1563; first compound 0.04 µM): 0.692
relative viability (NCI-H1563; first compound 0.1265 µM): 0.636
relative viability (NCI-H1563; first compound 0.4 µM): 0.659
relative viability (NCI-H1563; first compound 4 µM): 0.677
relative viability (EPLC-272H; first compound 0.04 µM): 0.278
relative viability (EPLC-272H; first compound 0.1265 µM): 0.274
relative viability (EPLC-272H; first compound 0.4 µM): 0.307
relative viability (EPLC-272H; first compound 4 µM): 0.271
relative viability (LXF-289; first compound 0.04 µM): 0.482
relative viability (LXF-289; first compound 0.1265 µM): 0.517
relative viability (LXF-289; first compound 0.4 µM): 0.549
relative viability (LXF-289; first compound 4 µM): 0.517
relative viability (NCI-H2126; first compound 0.04 µM): 0.573
relative viability (NCI-H2126; first compound 0.1265 µM): 0.528
relative viability (NCI-H2126; first compound 0.4 µM): 0.531
relative viability (NCI-H2126; first compound 4 µM): 0.454
relative viability (HCC-827; first compound 0.04 µM): 0.429
relative viability (HCC-827; first compound 0.1265 µM): 0.402
relative viability (HCC-827; first compound 0.4 µM): 0.401
relative viability (HCC-827; first compound 4 µM): 0.415
relative viability (LOU-NH91; first compound 0.04 µM): 0.792
relative viability (LOU-NH91; first compound 0.1265 µM): 0.691
relative viability (LOU-NH91; first compound 0.4 µM): 0.696
relative viability (LOU-NH91; first compound 4 µM): 0.667
